According to PMC12196235, “Enhancing the Pharmacological Properties of Triterpenes Through Acetylation: An Anticancer and Antioxidant Perspective” (Molecules, 2025):
“And” between values parts separate entries of the source, which are not always exact repeats. Identical values can stand only once. Like-named read-outs stand apart in the source and are kept apart here.

Assays:
[1] = tested on: HeLa, KB, MCF-7, A-549, PC-3 and SKOV-3; assay: MTT assay, summary over the cancer cell lines; assay type: cell-based, human; conditions: for cytotoxic activity class: classification by IC50 (good ≤ 10 μM, moderate 10–30 μM, ref 83)
Method: (§1) All the cell lines and mediums were obtained from the American Type Culture Collection (ATCC) supplied by LGC-Standards (Lomianki, Poland). Human cancer cell lines were cultured as follows: HeLa (human cervix carcinoma) and KB (human oral squamous carcinoma) lines were cultured in DMEM (Dulbecco’s Modified Eagle’s Medium); MCF-7 (human breast carcinoma) and A-549 (human lung carcinoma) were cultured in RPMI 1640 medium; PC-3 (human prostate carcinoma) was cultured in F-12K medium; SKOV-3 (human ovarian cystadenocarcinoma) was cultured in McCoy’s modified medium; HDF (human normal dermal fibroblasts) was cultured in Fibroblast Basal Medium. Each medium was supplemented with 10% fetal bovine serum, 1% L- glutamine and 1% penicillin/streptomycin solution. The cell lines were kept in an incubator at 37 °C.
(§2) All the tested cell lines (HeLa, KB, MCF-7, A-549, PC-3, SKOV-3 and HDF) were subjected to MTT assay. In short, this assay is based on the reaction between mitochondria enzymes (dehydrogenases) of tested cell lines and 3-(4,5-dimethylthiazol-2-yl)-2,5-diphenyltetrazolium bromide (MTT). The final product of this reaction gives violet formazan crystals. The number of live cells is proportional to the amount of formazan and is represented by the violet dye reagent. The details of the experiments are given in [19].

CUPRAC antioxidant assay = conditions: calculated from Trolox standard curve
Method: (§3) The results are presented as % inhibition of the copper(II) ions and Trolox equivalent calculated from the standard curve (Figure 9) and as % inhibition of the DPPH radical and Trolox equivalent, calculated from the standard curve (Figure 10).
(§4) The CUPRAC reagent (7.5 mM ethanolic 96% neocuproine solution, 10 mM CuCl2 × H2O solution and an ammonium acetate buffer of pH 7.0) and DPPH reagent (2,2-diphenyl-1-picrylhydrazyl 0.2 mM solution) were applied.
(§5) The CUPRAC method measures the reducing power of a sample by quantifying its ability to convert the Cu-neocuproine reagent complex to the Cu(I) form. In contrast, the DPPH assay relies on the ability of an antioxidant to donate a hydrogen atom or an electron to the stable DPPH radical, resulting in its reduction and subsequent color change. The results are presented as % inhibition of the copper(II) ions and Trolox equivalent calculated from the standard curve (Figure 9) and as % inhibition of the DPPH radical and Trolox equivalent, calculated from the standard curve (Figure 10). The spectroscopic detection in CUPRAC and DPPH assays was conducted with Synergy H1 Multi-Mode Microplate Reader (BioTek Instruments, Inc., Winooski, VT, USA). The details of the experiments are given in [102].

DPPH antioxidant assay = conditions: calculated from Trolox standard curve
Method: as §3, §4, §5

[2] = tested on: SKOV-3 (human ovarian carcinoma); conditions: MTT assay, data published earlier, read-out: IC50 (±SD), SKOV-3; cited from earlier work
[3] = tested on: HDF (human dermal fibroblasts); conditions: MTT assay, normal dermal fibroblasts; data published earlier; read-out: IC50 (±SD), HDF; cited from earlier work
[4] = tested on: HSV-1/153 (Herpes simplex virus type 1 ACV-resistant strain); conditions: ref 15; read-out: antiviral EC50 (HSV-1/153); cited from earlier work
[5] = tested on: HSV-1/106 (Herpes simplex virus type 1 ACV-resistant strain); conditions: ref 15; read-out: antiviral EC50 (HSV-1/106); cited from earlier work
[6] = tested on: HSV-1/Blue (Herpes simplex virus type 1 ACV-resistant strain); conditions: ref 15; read-out: antiviral EC50 (HSV-1/Blue); cited from earlier work
Staphylococcus aureus = conditions: ref 16; cited from earlier work
Escherichia coli = conditions: ref 16; cited from earlier work
Salmonella typhi = conditions: ref 16; cited from earlier work
[7] = tested on: KB (human oral squamous carcinoma); conditions: ref 104; cited from earlier work
[8] = tested on: Hep-G2 (human hepatocellular carcinoma); conditions: cited from earlier work
[9] = tested on: HCT-116 (human colorectal carcinoma); conditions: cited from earlier work
[10] = tested on: HT-29 (human colorectal adenocarcinoma); conditions: cited from earlier work
[11] = tested on: A-549 (human lung carcinoma); conditions: cited from earlier work
[12] = tested on: KB-VIN (multidrug resistant human epidermoid carcinoma); conditions: ref 104; cited from earlier work
[13] = tested on: B16-F10 (murine melanoma); conditions: cited from earlier work
RAW 264.7 = conditions: ref 106; cited from earlier work
[14] = tested on: J774A.1 (macrophage-like cell line); conditions: ref 106; cited from earlier work
[15] = tested on: HeLa (human cervical epithelioid carcinoma); assay: MTT assay, HeLa; assay type: cell-based; conditions: for IC50: Homo sapiens, MTT assay, HeLa, read-out: IC50 (±SD), HeLa
Method: as §1, §2

[16] = tested on: KB (human oral squamous carcinoma); assay: MTT assay, KB; assay type: cell-based; conditions: for IC50: Homo sapiens, MTT assay, KB; for Selectivity index (SI), KB: IC50 HDF / IC50 KB
Method: as §1, §2

[17] = tested on: MCF-7 (human breast carcinoma); assay: MTT assay, MCF-7; assay type: cell-based; conditions: for IC50: Homo sapiens, MCF7, MTT assay, MCF-7, read-out: IC50 (±SD), MCF-7; for Selectivity index (SI), MCF-7: IC50 HDF / IC50 MCF-7
Method: as §1, §2

[18] = tested on: A-549 (human lung carcinoma); assay: MTT assay, A-549; assay type: cell-based; conditions: for IC50: Homo sapiens, A549, MTT assay, A-549, read-out: IC50 (±SD), A-549; for Selectivity index (SI), A-549: IC50 HDF / IC50 A-549
Method: as §1, §2

[19] = tested on: PC-3 (human prostate carcinoma); assay: MTT assay, PC-3; assay type: cell-based; conditions: for IC50: Homo sapiens, MTT assay, PC-3, read-out: IC50 (±SD), PC-3; for Selectivity index (SI), PC-3: IC50 HDF / IC50 PC-3
Method: as §1, §2

[20] = tested on: SKOV-3 (human ovarian carcinoma); assay: MTT assay, SKOV-3; assay type: cell-based; conditions: for IC50: Homo sapiens, SK-OV-3, MTT assay, SKOV-3, read-out: IC50 (±SD), SKOV-3; for Selectivity index (SI), SKOV-3: IC50 HDF / IC50 SKOV-3
Method: as §1, §2

[21] = tested on: HDF (human dermal fibroblasts); assay: MTT assay, normal HDF; assay type: cell-based; conditions: Homo sapiens, Fibroblast, read-out: IC50 (±SD), HDF
Method: as §1, §2

[22] = tested on: CCRF-CEM, CEM (human T lymphoblastic leukemia); conditions: ref 26; read-out: anticancer IC50 (CCRF-CEM, CEM); cited from earlier work
[23] = tested on: SMMC-7721 (human hepatocarcinoma); design: method as in PMID 35897914; conditions: ref 27; read-out: anticancer IC50 (SMMC-7721); cited from earlier work
HCV (Hepatitis C virus) = tested on: HCV (Hepatitis C virus); design: method as in PMID 26102077; conditions: ref 32; read-out: antiviral EC50 (HCV); cited from earlier work
[24] = tested on: SW-480 (human colon adenocarcinoma); design: method as in PMID 28981110; conditions: ref 38; read-out: anticancer IC50 (SW-480); cited from earlier work
[25] = tested on: NOZ (human gall bladder carcinoma); design: method as in PMID 31915810; conditions: ref 39; read-out: anticancer IC50 (NOZ); cited from earlier work
[26] = tested on: A-2780 (human ovarian carcinoma); design: method as in PMID 31277238; conditions: ref 40; read-out: anticancer IC50 (A-2780); cited from earlier work

## CC1(C)CC[C@]2(C(=O)O)CC[C@]3(C)C(=CC[C@@H]4[C@@]5(C)CC[C@H](O)C(C)(C)[C@@H]5CC[C@]43C)[C@@H]2C1 [1a, oleanolic acid]
[1]
  cytotoxic activity class: high or moderately high activity
CUPRAC antioxidant assay
  Trolox Equivalent, CUPRAC Assay: 0.1031 ± 0.00684 mg/mL
DPPH antioxidant assay
  Trolox Equivalent, DPPH Assay: 0.02633 ± 0.00109 mg/mL
[2]
  IC50: 18.8 µM
[3]
  IC50: 24.9 µM
[4]
  EC50: 13.1 µM
[5]
  EC50: 12.9 µM
[6]
  EC50: 13.1 µM
Staphylococcus aureus
  antibacterial MBC (Staphylococcus aureus): 700 µg/mL
  antibacterial MIC (S. aureus): 95 µg/mL
Escherichia coli
  antibacterial MBC (Escherichia coli): 900 µg/mL
  antibacterial MIC (E. coli): 95 µg/mL
Salmonella typhi
  antibacterial MBC (Salmonella typhi): 300 µg/mL
  antibacterial MIC (S. typhi): 65 µg/mL
[7]
  IC50: > 10 µM
[8]; ref 18, 19, read-out: anticancer IC50 (Hep-G2)
  IC50: 16.2 µM
[8]; ref 105, read-out: IC50 (Hep-G2)
  IC50: 212 µM
[9]; ref 20
  anticancer IC50 (HCT-116): anticancer: IC50 = 40 µg × mL^−1 (HCT-116)
[10]; ref 105, read-out: IC50 (HT-29)
  IC50: 430 µM
[11]; ref 104, read-out: IC50 (A-549)
  IC50: 6.4 µM
[12]
  IC50: > 10 µM
[13]; ref 105
  IC50: 106 µM
[13]; ref 107
  IC50: 106 µM
RAW 264.7
  IC50: 41.7 µM
[14]
  IC50: 35.2 µM

## CC1(C)CC[C@]2(CO)CC[C@]3(C)C(=CC[C@@H]4[C@@]5(C)CC[C@H](O)C(C)(C)[C@@H]5CC[C@]43C)[C@@H]2C1 [2a, erythrodiol]
[15]
  IC50: 54.3 µM
[16]
  IC50: 66 µM
  Selectivity index (SI), KB: 0.42
[17]
  IC50: 65.5 µM
  Selectivity index (SI), MCF-7: 0.43
[18]
  IC50: 63.7 µM
  Selectivity index (SI), A-549: 0.44
[19]
  IC50: 21.1 µM
  Selectivity index (SI), PC-3: 1.32
[20]
  IC50: 18.3 µM
  Selectivity index (SI), SKOV-3: 1.53
[21]
  IC50: 28 µM
[1]; HeLa, KB, MCF-7 and A-459 cell lines
  times less active than oleanolic acid 1a: 4.4–7.2 times
CUPRAC antioxidant assay
  Trolox Equivalent, CUPRAC Assay: 0.09414 mg/mL and 0.09414 ± 0.0095 mg/mL
DPPH antioxidant assay
  Trolox Equivalent, DPPH Assay: 0.02092 mg/mL and 0.02092 ± 0.000866 mg/mL
[8]; ref 24, read-out: anticancer IC50 (Hep-G2)
  IC50: 27.3 µM
[8]; ref 27, read-out: anticancer IC50 (Hep-G2)
  IC50: 87.7 µM
[10]; ref 25, read-out: anticancer EC50 (HT-29)
  EC50: 48.8 µM
[22]
  IC50: 250 µM
[23]
  IC50: 65 µM
[11]; cell line printed as A-459, read-out: anticancer IC50 (A-459)
  IC50: 63 µM

## C=C(C)[C@@H]1CC[C@]2(C(=O)O)CC[C@]3(C)[C@H](CC[C@@H]4[C@@]5(C)CC[C@H](O)C(C)(C)[C@@H]5CC[C@]43C)[C@@H]12 [4a, betulinic acid]
[15]
  IC50: 27.5 µM
[15]; IC50 HDF / IC50 HeLa
  Selectivity index (SI), HeLa: 0.72
[16]
  IC50: 35.2 µM
  Selectivity index (SI), KB: 0.56
[17]
  IC50: 27.9 µM
  Selectivity index (SI), MCF-7: 0.71
[18]
  IC50: 26.2 µM
  Selectivity index (SI), A-549: 0.76
[19]
  IC50: 10.6 µM
  Selectivity index (SI), PC-3: 1.88
[20]
  IC50: 9.52 µM
  Selectivity index (SI), SKOV-3: 2.09
[21]
  IC50: 19.9 µM
[1]
  cytotoxic activity class: high or moderately high activity
CUPRAC antioxidant assay
  Trolox Equivalent, CUPRAC Assay: 0.07632 ± 0.00727 mg/mL
DPPH antioxidant assay
  Trolox Equivalent, DPPH Assay: 0.01526 ± 0.000632 mg/mL
[9]; ref 38, read-out: anticancer IC50 (HCT-116)
  IC50: 178 µM
[10]; ref 38, read-out: anticancer IC50 (HT-29)
  IC50: 125 µM
[22]
  IC50: 30 µM
HCV (Hepatitis C virus)
  EC50: 11.2 µM
[24]
  IC50: 58 µM
[25]
  IC50: 30 µM
[26]
  IC50: 44.5 µM
